Here are results for one molecule from paper PMC11036078, “PD‐1 inhibition with retifanlimab and/or arginase inhibition with INCB001158 in Japanese patients with solid tumors: A phase I study” (Cancer Medicine, 2024).

The nature of data set [1]: INCB001158 plasma pharmacokinetics (LC-MS/MS, noncompartmental analysis). Particulars: for Cmax: read-out: INCB001158 geometric mean Cmax. The class given is in vivo, Japanese patients. As to the method: Pharmacokinetics of single‐agent retifanlimab and INCB001158, and the combination, were secondary endpoints of the study. The detection of anti‐drug antibodies (ADAs) was an exploratory endpoint. Blood samples for retifanlimab PK assessments were taken on days 1 (−2 h pre‐dose, end of infusion, and 6 h post‐dose), 2, 8, and 15 (no specified time) of cycle 1, day 1 of cycles 2–8 (−2 h pre‐dose, and end of infusion on cycles 2 and 6 only), and day 1 of every 4 cycles after cycle 8 (−2 h pre‐dose). Samples for ADA assessment were collected at the same time as for PK analysis, and an additional sample was collected at safety follow‐up on day 15 (no specified time). Blood samples for INCB001158 were collected pre‐dose, 0.5, 1, 2, 4, 6, and 8 h post‐dose on days 1 and 15 of cycle 1, 12 h post‐dose on day 1 of cycle 1, and pre‐dose on days 2 and 8 for cycle 1, and day 1 of cycle 2. Serum concentrations of retifanlimab were determined using an electrochemiluminescence immunoassay method, and plasma concentrations of INCB001158 were measured using a validated liquid chromatography with tandem mass spectrometry assay (Incyte Corporation, Wilmington, DE, USA). ADAs against retifanlimab were monitored using a bridging immunoassay (Incyte Corporation).
Pharmacokinetics parameters were derived from concentrations versus time data using model‐independent noncompartmental analysis methods (WinNonlin v8.2, Certara USA Inc., Princeton, NJ, USA), and included maximum observed serum or plasma concentration (C max), serum or plasma concentration observed at the end of the dosing interval (C tau), time to maximum observed serum or plasma concentration (t max), area under the serum or plasma concentration–time curve (AUC) from time 0 to the end of the dosing interval (AUCtau), AUC from time 0 to infinity (AUC0‐∞), apparent terminal‐phase disposition half‐life, clearance, and volume of distribution. […]

For data set [2], the system named is arginase. On the set-up: method as in earlier work. The settings on record: phase I/II studies; cited from earlier work.
In data set [3] the test system is T‐cell proliferation. Details: method as in PMID 29254508. Particulars: preclinical; cited from earlier work.
Setting [4] is: steady-state, 100 mg BID oral, monotherapy: two individual values (n = 2), combination n = 5 mean ± SD (geometric mean).

Read-outs that look alike come from different tables or passages of the source.

With `C[C@H](N)C(=O)N1C[C@H](CCCB(O)O)[C@](N)(C(=O)O)C1` [INCB001158], the “PK of INCB001158 in combination with retifanlimab versus INCB001158 monotherapy” value in data set [1] (Japanese patients) is listed as “comparable”. In addition, the “Drug–drug interaction (INCB001158 PK, combination vs monotherapy cohorts)” value in data set [1] (combination cohort) is recorded as “no drug–drug interaction”. Further, the AUC worked out at 17900 ng·h/mL in data set [1] (human, plasma, oral, 100 mg, first dose, 100 mg BID monotherapy, read-out: INCB001158 geometric mean AUC0‐∞); 13700 ng·h/mL in data set [1] (human, plasma, oral, 100 mg, first dose, 100 mg BID monotherapy, read-out: INCB001158 geometric mean AUCtau); 23200 ng·h/mL in data set [1] (human, plasma, oral, 100 mg, steady‐state, 100‐mg BID monotherapy, read-out: INCB001158 geometric mean AUCtau). The peak concentration (Cmax) (as a rule, the peak of the concentration-time curve) was 1740 ng/mL in data set [1] (human, plasma, oral, 100 mg, first dose, 100 mg BID monotherapy) and 2690 ng/mL in data set [1] (human, plasma, oral, 100 mg, steady‐state, 100‐mg BID monotherapy). For the same molecule, the Tmax (in general, the time at which the peak concentration occurs) was found to be 3.9 h in data set [1] (human, plasma, oral, 100 mg, first dose, 100 mg BID monotherapy, read-out: INCB001158 median tmax); 3.8 h in data set [1] (human, plasma, oral, 100 mg, steady‐state, 100‐mg BID monotherapy, read-out: INCB001158 median tmax); 3.9 h in data set [1] (human, plasma, po, 75 mg, first dose, 75 mg BID oral, n = 3, median (min, max), read-out: INCB001158 tmax); 3.9 h in data set [1] (human, plasma, po, 75 mg, steady-state, 75 mg BID oral, n = 3, median (min, max), read-out: INCB001158 tmax); 3.9 h in data set [1] (human, plasma, po, 100 mg, first dose, 100 mg BID oral, monotherapy n = 3, combination n = 6, median (min, max), read-out: INCB001158 tmax); 3.8 h in data set [1] (human, plasma, po, 100 mg, steady-state, 100 mg BID oral, monotherapy n = 3, combination n = 5, median (min, max), read-out: INCB001158 tmax). Further, the Vd/F in data set [1] (human, plasma, po, 100 mg, steady-state, 100 mg BID oral, monotherapy: two individual values (n = 2), combination n = 5 mean ± SD (geometric mean), read-out: INCB001158 Vz/F) was 44.9 L. Moreover, the half-life in data set [1] (human, plasma, po, 100 mg, steady-state, 100 mg BID oral, monotherapy: two individual values (n = 2), combination n = 5 mean ± SD (geometric mean), read-out: INCB001158 t½ (converted)) was 6.25 h. Besides, the “INCB001158 Vz/F” value in data set [1] (setting [4]) is listed as 39.3 L. Besides, the “INCB001158 t½” value in data set [1] (setting [4]) was determined as 5.50 h. The “INCB001158 geometric mean Ctau” value in data set [1] (steady‐state, 100‐mg BID monotherapy) amounted to 1130 ng/mL. The Plasma arginine levels entry in data set [2] is reported as “increase in plasma arginine levels”. For the same molecule, in data set [3], the “T‐cell proliferation in the presence of inhibitory granulocytes” value is given as “restored T‐cell proliferation”.
